# Measured values as given in patent US20230266307A1, “BIOINFORMATICS” (University of Helsinki, priority 2020, published 2023).
# No end group written: not given here.
# Tests used:
# ccRCC PDO = assay: killing assay with peptide-pulsed CD8+ T cells on ccRCC patient-derived organoids; assay type: cell-based, human
# Description: We focused our analysis on ccRCC samples. We used transcriptomics levels to select putative tumour antigens using PBMC and healthy kidney tissue as reference sets. Next, PBMCs from healthy volunteers were pulsed with the selected peptides, and CD8+ T cells isolated from those cells were used in the assay.
# Finally, we sought to investigate the recall T cells response in the ccRCC patient. To this end, unfractionated PBMCs derived from the patient were in vitro stimulated with the peptide EVAQPGPSNR whereas unstimulated PBMCs were adopted as control. The derived CD8+T cells were then added to the ccRCC PDO showing about a 7% increase in killing activity compared to the control group.
# JY cells = assay: in vitro killing assay, real time cytolysis of JY cells by peptide-pulsed CD8+ T cells; assay type: cell-based, human; conditions: for specific cytolysis: CD8+ T cells from HLA-matched PBMCs pulsed with the peptide, coculture with JY cells
# Method: Next, in order to determine the role of the peptides identified, a gene ontology (GO) term enrichment analysis was performed on our list of 9mer binder source proteins. We observed an enrichment in nuclear and intracellular proteins, mainly those interacting with DNA, RNA or involved in catabolic activity. […] To account for nonspecific cytotoxicity due to the effector cells per se, unstimulated PBMCs were used as a control. Real time cytolysis was then monitored.
# B16-OVA cells = assay: intratumoral PeptiCRAd treatment of established B16-OVA tumors; assay type: in vivo, C57BL/6J mice; conditions: B16OVA
# Method: (§1) A: Scheme of the animal experiment: 4 groups of C57BL mice were formed for each tumor cell line to be tested. Mice were subcutaneously injected either with B16-OVA or B16F10 cells at day 0. Once the tumor was palpable, mice were treated with saline solution (Mock group), uncoated adenovirus (Uncoated Virus group), adenovirus coated with pool of viral peptides homologous to TRP2 (Viral PeptiCRAd, VPC) or adenovirus coated with TRP2 peptide (TRP2 PeptiCRAd, TPC).
# (§2) All PeptiCRAd complexes described in this work were prepared by mixing Adenoviruses and polyK-tailed peptides according to the following protocol: 1×10^9 vp(viral particles) were mixed with 20 ug poly-K tailed peptides (resuspended in water); after vortexing, the mixture was incubated at room temperature for 15 min; PBS was added, after the incubation, up to the injection volume (50 uL/mouse), successively, the solution was vortexed again and used for assays or animal injections. For the TRP2-PeptiCRAd, 1×10^9 vp were mixed with 20ug of 6K-TRP2180-188 peptide, while the Viral-PeptiCRAd was prepared using 1×10^9 vp mixed with 5 ug of each viral 6K-peptide homologous for […]. […]
# (§3) Tumor growth was followed with a digital caliper measuring two dimensions of the tumor. Successively, the volume was mathematically calculated according to the following formula: […]
# B16F10 cells = assay: intratumoral PeptiCRAd treatment of established B16F10 tumors; assay type: in vivo, C57BL/6J mice
# Method: as §1, §2, §3
# [1] = target: HLA-I complexes of the human B-cell lymphoblastoid cell line JY (human); assay: cell-based or functional assay
molecule,measurement,setting,value
"EVAQPGPSNR (HSPG2 gene) [peptide from ccRCC organoids, gene name HSPG2]",specific cytolysis,"ccRCC PDO; CD8+ T cells from PBMCs of healthy volunteers pulsed with the peptide, ccRCC samples",about 10%
same,increase in killing activity compared to the control group,"ccRCC PDO; CD8+ T cells from the ccRCC patient's PBMCs stimulated with the peptide, added to ccRCC PDO, control unstimulated PBMCs",~7%
"ILDKKVEKV [HLA-I peptide from JY cells, gene name HSP90AB3P]",specific cytolysis,JY cells,15%
same,"specific cytolysis, comparison among the tested peptides","JY cells; JY cells, CD8+ T cell-dependent killing",higher percentage of specific cytolysis
"KVLEYVIKV [HLA-I peptide from JY cells, gene name MAGEA1]",specific cytolysis,JY cells,about 10%
"QLVDIIEKV [HLA-I peptide from JY cells, gene name PSME3]",specific cytolysis,JY cells,about 10%
"TRP2-PeptiCRAd: adenovirus coated with 6K-TRP2180-188 peptide (KKKKKKSVYDFFVWL; also: coated on adenovirus; UniProt P29812 180-188, looked up, fragment)",tumor progression,"B16-OVA cells; intratumoral, compared to saline buffer or uncoated virus",significantly reduced the tumor progression
same,number of responders,B16-OVA cells; tumor volume below the median at endpoint,significantly higher number of responders
same,tumor progression,"B16F10 cells; B16F10, intratumoral, compared to saline buffer or uncoated virus",significantly reduced the tumor progression
same,number of responders,"B16F10 cells; B16F10, tumor volume below the median at endpoint",significantly higher number of responders
QLVDIIEKV (not fully specified) [… (gene name PSME3)],specific cytolysis of JY cells by CD8+ T cells pulsed with the peptide,[1],10%
KVLEYVIKV [… (gene name MAGEA1)],specific cytolysis of JY cells by CD8+ T cells pulsed with the peptide,[1],10%
ILDKKVEKV [… (gene name HSP90AB3P)],specific cytolysis of JY cells by CD8+ T cells pulsed with the peptide,[1],15%
